Converted amounts (≈) assume the structure as drawn.

The test system of one data set is P. tricornutum Bohlin. In words: Diatom growth inhibition assay (antialgal activity). Type of data set: cell-based, Phaeodactylum tricornutum Bohlin. The note with it: Phaeodactylum tricornutum, 48 h, chlorophyll a of attached microalgae, read-out: EC50 P. tricornutum. The method, then:
(§1) The antialgal activity against the microalgae P. tricornutum Bohlin, C. vulgaris, C. socialis, N. laevissima, and N. exigua was evaluated by the method of Ortlepp et al. ([2008]). Briefly, the microalgae were grown in sterilized BG11 medium under light intensity of 2500 lx and 12 h: 12 h light: dark cycle at temperature of 20 ℃. The microalgae were grown to reach the logarithmic phase (approximately 5 × 10^5 cells/ml), which were used for microalgae growth inhibition assay. The compounds 1–71 were first dissolved in a small amount of DMSO and then diluted with 0.22 μm of filtered seawater (FSW) to achieve a range of concentrations from 0.625 to 50 μg/ml. Ten microliters of the compound solution was added to multiwell Petri dishes containing a 1-mL suspension of the microalgae (approximately 12 × 10^4 cells/ml). FSW with DMSO was used as a negative control, and solutions of SeaNine 211 in seawater were used as positive controls. After the plates were incubated for 48 h (16 ± 1 ℃) under continuous light, the FSW with non-attached microalgae was removed. The amount of chlorophyll a in attached microalgae was determined with a spectrophotometer (Beckman, model DU650, USA). Then the EC50 (inhibits 50% of settlement of cyprids in comparison with the control) was calculated using the Probit software program.

The next data set relates to C. socialis. Described as above. Type of data set: cell-based, Chaetoceros socialis. The conditions noted are these: Chaetoceros socialis, 48 h, chlorophyll a of attached microalgae, read-out: EC50 C. socialis. The method, then: as §1
The subject of a further data set is N. laevissima. The data set is described as above. It counts as cell-based, Navicula laevissima. The conditions noted are these: Sellaphora laevissima, 48 h, chlorophyll a of attached microalgae, read-out: EC50 N. laevissima. As to the method: as §1
The next data set relates to N. exigua. The data set is described as above. It counts as cell-based, Navicula exigua. The conditions noted are these: 48 h, chlorophyll a of attached microalgae, read-out: EC50 N. exigua. The method, then: as §1
In the next data set the test system is C. vulgaris. The description is as above. Type of data set: cell-based, Chlorella vulgaris. The conditions noted are these: Chlorella vulgaris; 48 h, chlorophyll a of attached microalgae; read-out: EC50 C. vulgaris. As to the method: as §1
The test system of the next data set is zebrafish embryos. The data set is described as follows: Zebrafish embryo toxicity test. Type of data set: in vivo. The conditions noted are these: for death of zebrafish embryos: 50 μmol/L, after 24 h; for survival of zebrafish embryos: 100 μmol/L, 52 h. The method, then: Toxicity assays were carried out using the method of Wang et al. ([2011]). Briefly, the normal embryos were selected and transferred into a 24-well plate. The embryos at 1 h postfertilization (hpf) were exposed by immersion in E3 embryo medium containing the derivative in a 1% (v/v) DMSO final solvent concentration in a 24-well plate. The developmental phenotypes of the experimental status of the embryos were observed every 24 h for 72 h and were photographed with a charge-coupled device (CCD) camera.

The subject of data set [1] is P. tricornutum Bohlin, C. vulgaris, C. socialis, N. laevissima, and N. exigua. In words: Diatom growth inhibition assay, whole panel. The conditions noted are these: Chlorella vulgaris; selective and moderate activities; read-out: EC50 antialgal, range over compounds and algae. It counts as cell-based. As to the method:
as §1

A further data set has as its system Staphylococcus aureus. The data set is described as follows: Antimicrobial assay (serial dilution, MIC). Type of data set: cell-based. The note with it: 37 °C, 24 h, read-out: minimum inhibitory concentration (MIC) S. aureus. As to the method:
The antimicrobial activities were carried out by a serial dilution technique using 96-well microtiter plates (Pierce et al. [2008]). The derivatives were dissolved in DMSO to obtain a stock solution. Microbial species were cultured overnight at 37 °C in LB broth and diluted to 10^6 cfu/ml when used. LB broth was used as a blank control, and DMSO was used as a negative control, while ciprofloxacin was used as a positive control. The plates were incubated at 37 °C for 24 h.

In data set [2] the test system is chloroquine sensitive HB3 strain of P. falciparum. In words: In vitro antiplasmodial assay (Pico-Green growth inhibition). It counts as cell-based, Plasmodium falciparum. The note with it: for P. falciparum SI, Selectivity Index (CC50/IC50): CC50 HUVEC / IC50 P. falciparum; for IC50: Plasmodium falciparum, Erythrocyte, HB3 strain in human erythrocytes, read-out: P. falciparum IC50. As to the method: In vitro antiplasmodial activity was performed by culturing human erythrocytes and infecting them with P. falciparum, as reported by Trager and Jensen ([1976]). Briefly, the chloroquine sensitive HB3 strain of P. falciparum-infected O + erythrocytes was cultured in RPMI 1640 medium supplemented with 10% human serum (from O + blood) at a hematocrit of 2% erythrocytes at 37 °C with a gas mixture containing 90% N2, 5% CO2, and 5% O2. Parasites were synchronized with 5% D-sorbitol (Lambros and Vanderberg [1979]). P. falciparum growth inhibition bioassays were performed with the procedure as described by Corbett et al. ([2004]), which used Pico-Green, a double stranded-DNA fluorescent dye to test the effect of compounds.

Data set [3] in a line: In vitro cytotoxicity (CC50). Type of data set: cell-based. The conditions noted are these: human, HUVEC cells. From the text:
Toxicity is a major concern of drug discovery and development, and the selectivity index (SI) is used as the evaluation parameter of drug potential of the test samples by comparing the toxicity on a human cell line (CC50) and the selective inhibitory effect on P. falciparum (IC50) calculated here as CC50/IC50. We decided to evaluate in vitro cytotoxicity of the active derivatives 38, 39, 50, 52, 65, 67, 70, and 71 by determining their 50% cytotoxic concentrations. The results are presented in Table 3, presenting only those CC50 values > 100 μmol/L, reaching selectivity indexes > 10. The cytotoxic concentration at 150 μmol/L was not be determined because of a lack of solubility of the tested molecule in the culture medium. Moreover, the toxicity of these derivatives was also evaluated against two other cell lines: hepatocellular liver carcinoma cell line (Hep G2) and cervical carcinoma (HeLa), finding CC50 values > 100 μmol/L.

The test system of data set [4] is larval settlement of the barnacle Balanus Amphitrite. Further details: method as in Shao et al. [2011]. The note with it: ref Shao et al. [2011]; cited from earlier work.

For the compound `COc1cc2c(c(OCc3ccc4ccccc4c3)c1)C(=O)OC(C)CC=CC(O)C(O)C(O)CC=C2` (stereo not drawn) [Compound 14], the EC50 (commonly the concentration that produces a half-maximal response) with P. tricornutum Bohlin was more than 10 µM; with C. socialis, 17.2 µM; in the data set with N. laevissima, 20.4 µM; in the data set on N. exigua it was 18.5 µM; with C. vulgaris, more than 10 µM; in [1], 11 to 32.5 µM. The “death of zebrafish embryos” value in the data set with zebrafish embryos was “all embryos died”.

As to `COc1cc2c(c(OCc3ccc(C(C)(C)C)cc3)c1)C(=O)OC(C)CC=CC(O)C(O)C(O)CC=C2` (stereo not drawn) [Compound 26], the EC50 with P. tricornutum Bohlin was 25.7 µM; in the data set on C. socialis, 18.4 µM; with N. laevissima, more than 10 µM; with N. exigua it was more than 10 µM; with C. vulgaris, more than 10 µM; in [1] it was 11 to 32.5 µM. For the same compound, the “death of zebrafish embryos” value with zebrafish embryos is on record as “all embryos died”. In addition, the MIC in the data set on Staphylococcus aureus is 25 µM (≈ 12.8 µg/mL).

In the case of `COc1cc2c(c(OCc3ccc(-c4ccccc4C#N)cc3)c1)C(=O)OC(C)CC=CC1OC(C)(C)OC1C(O)CC=C2` (stereo not drawn) [Compound 38], in [2], the “P. falciparum SI, Selectivity Index (CC50/IC50)” value is recorded as more than 12 and the 50% inhibitory concentration (IC50) (as a rule, the concentration at which inhibition is half-maximal) worked out at 8.06 µM. Moreover, the CC50 (usually the concentration at which the toxic effect on the cells reaches its halfway point) in [3] is more than 100 µM. The “survival of zebrafish embryos” value in the data set on zebrafish embryos is listed as “All embryos survived”.

Take `COC(=O)c1ccccc1-c1ccc(COc2cc(OC)cc3c2C(=O)OC(C)CC=CC2OC(C)(C)OC2C(O)CC=C3)cc1` (stereo not drawn) [Compound 39]: in data set [2], the “P. falciparum SI, Selectivity Index (CC50/IC50)” value is more than 14 and the IC50 was determined as 6.69 µM. Also, in data set [3], the CC50 was more than 100 µM. The “survival of zebrafish embryos” value with zebrafish embryos was “All embryos survived”.

For the compound `[2H]C([2H])([2H])C1(C([2H])([2H])[2H])OC2C=CCC(C)OC(=O)c3c(cc(OC)cc3OCc3ccc(-c4ccccc4C(=O)OC)cc3)C=CCC(O)C2O1` (stereo not drawn) [Compound 67], in data set [2], the “P. falciparum SI, Selectivity Index (CC50/IC50)” value is recorded as more than 13 and the IC50 came to 7.25 µM. For the same compound, the CC50 in [3] was more than 100 µM.

For `CCC(=O)Oc1cc(OC)c(Cl)c2c1C(=O)OC(C)CC=CC(OC(=O)CC)C(OC(=O)CC)C(OC(=O)CC)CC=C2` (stereo not drawn) [Compound 70], in data set [2], the “P. falciparum SI, Selectivity Index (CC50/IC50)” value is listed as more than 14 and the IC50 stood at 6.91 µM. The same compound displayed a cytotoxic concentration (CC50) in [3] of more than 100 µM.

For `COc1cc(OC(=O)C(C)(C)C)c2c(c1Cl)C=CCC(OC(=O)C(C)(C)C)C(O)C(OC(=O)C(C)(C)C)C=CCC(C)OC2=O` (stereo not drawn) [Compound 71], in [2], the “P. falciparum SI, Selectivity Index (CC50/IC50)” value was more than 28 and the IC50 was 3.54 µM. The CC50 in data set [3] is more than 100 µM.

For `COc1cc(O)c2c(c1)/C=C/C[C@H](O)[C@@H]1OC(C)(C)O[C@H]1C=CC[C@H](C)OC2=O` [cochliomycin A], the “concentration of significant antifouling activity against larval settlement” value in data set [4] is 1.2 µg/mL.
